In patent US12209086B2, “FGFR3 inhibitor compounds” (ELI LILLY AND COMPANY, priority 2021, dated 2025):

Molecular target: T1, FGFR3 protein (Homo sapiens, UniProt P22607)
T1 construct: purchased Reaction Biology 1068
Assay: FGFR3 enzyme assay (KinEASE-TK HTRF kinase assay)
Type: biochemical
Settings: 0.25 nM enzyme, ATP at Km, 15 min pre-incubation on ice, 30 min at 30° C.
Experimental: FGFR3 and FGFR1 Enzyme Assay
Enzyme activity was monitored using the KinEASE™-TK Assay Kit (Cisflio, Cat. No. 62TK0PEC) according to the manufacturer's instructions. All assays were performed at the respective KmATP for each kinase in KinEASE™ Kinase Buffer.
Titration of compounds were performed in a half-log manner in 100% dimethyl sulfoxide (DMSO) starting at 1 uM. Prior to the initiation of the reaction by adenosine triphosphate (ATP), FGFR1 protein and compounds were pre-incubated for 15 minutes at room temperature, and FGFR3 protein and compounds were pre-incubated on ice for 15 minutes. Reactions proceeded for 30 min at 30° C. Plates were quenched by the addition of the Anti-TK cryptate antibody/Streptavidin-XL665 mixture.
Ratios were converted to a percent of control (POC) using a ratiometric emission factor. One hundred POC was determined using no test compound, and 0 POC was determined in the presence of 1 uM of an appropriate control inhibitor.

T1 sequence (P22607 23-806): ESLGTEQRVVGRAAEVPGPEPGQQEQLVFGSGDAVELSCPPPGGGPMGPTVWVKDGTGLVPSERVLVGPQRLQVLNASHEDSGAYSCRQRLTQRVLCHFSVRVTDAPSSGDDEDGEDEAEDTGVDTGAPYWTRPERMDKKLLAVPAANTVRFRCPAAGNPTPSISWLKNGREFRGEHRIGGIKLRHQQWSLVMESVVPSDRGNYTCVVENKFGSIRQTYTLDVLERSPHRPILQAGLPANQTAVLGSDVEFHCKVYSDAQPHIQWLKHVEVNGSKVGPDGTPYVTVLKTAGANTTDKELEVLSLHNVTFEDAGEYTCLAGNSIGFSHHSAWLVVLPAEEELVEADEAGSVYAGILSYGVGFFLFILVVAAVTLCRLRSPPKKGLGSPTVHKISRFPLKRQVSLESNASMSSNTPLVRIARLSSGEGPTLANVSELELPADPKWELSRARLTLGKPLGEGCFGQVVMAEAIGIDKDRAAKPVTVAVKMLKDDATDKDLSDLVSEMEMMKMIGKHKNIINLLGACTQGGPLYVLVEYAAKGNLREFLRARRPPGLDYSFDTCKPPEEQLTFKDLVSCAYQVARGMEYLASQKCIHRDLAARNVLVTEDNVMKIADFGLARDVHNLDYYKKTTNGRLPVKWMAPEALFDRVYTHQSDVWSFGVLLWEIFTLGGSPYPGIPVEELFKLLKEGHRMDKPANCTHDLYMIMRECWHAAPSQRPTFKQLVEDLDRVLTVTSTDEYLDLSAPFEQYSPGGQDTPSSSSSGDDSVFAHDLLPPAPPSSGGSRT

Row | SMILES | IC50 [nM]
1 | Cc1c(-c2cc(OC(C)c3ccccc3-c3ccon3)n3c(C#N)cnc3c2)nnn1C1CCN(C#N)CC1 (single isomer, unassigned) [Example 142, 7-[1-(1-Cyano-4-piperidyl)-5-methyl-triazol-4-yl]-5-[1-(2-isoxazol-3-ylphenyl)ethoxy] imidazo [1,2-a]pyridine-3-carbonitrile] | < 100
2 | Cc1c(-c2cc(OC(c3ccccn3)C(C)(C)C)n3c(C#N)cnc3c2)nnn1C1CCN(C#N)CC1 (single isomer, unassigned) [Example 264, 7-[1-(1-Cyano-4-piperidyl)-5-methyl-triazol-4-yl]-5-[2,2-dimethyl-1-(2-pyridyl)propoxy] imidazo[1,2-a]pyridine-3-carbonitrile] | < 100
3 | Cc1c(-c2cc(OC(C)c3cncc(C(F)(F)F)c3)n3c(C#N)cnc3c2)nnn1C1CCN(C#N)CC1 (single isomer, unassigned; isomer 1) [Example 41, 7-[1-(1-Cyano-4-piperidyl)-5-methyl-triazol-4-yl]-5-[1-[5-(trifluoromethyl)-3-pyridyl]ethoxy]imidazo[1,2-a]pyridine-3-carbonitrile, Isomer 1] | < 50
4 | Cc1c(-c2cc(OC(CO)c3ccc(F)cn3)c3c(C#N)cnn3c2)cnn1C1CCN(C#N)CC1 (single isomer, unassigned; isomer 1) [Example 43, 6-[1-(1-Cyano-4-piperidyl)-5-methyl-pyrazol-4-yl]-4-[1-(5-fluoro-2-pyridyl)-2-hydroxy-ethoxy]pyrazolo[1,5-a]pyridine-3-carbonitrile, Isomer 1] | < 50
5 | Cc1c(-c2cc(OC(c3ccc(F)cn3)C(F)(F)F)n3c(C#N)cnc3c2)nnn1C1CCN(C#N)CC1 (single isomer, unassigned; isomer 1) [Example 48, 7-[1-(1-Cyano-4-piperidyl)-5-methyl-triazol-4-yl]-5-[2,2,2-trifluoro-1-(5-fluoro-2-pyridyl)ethoxy]imidazo[1,2-a]pyridine-3-carbonitrile, Isomer 1] | < 50
6 | COCC(Oc1cc(-c2nnn(C3CCN(C#N)CC3)c2C)cc2ncc(C#N)n12)c1ccc(F)cn1 (single isomer, unassigned; isomer 1) [Example 49, 7-[1-(1-Cyano-4-piperidyl)-5-methyl-triazol-4-yl]-5-[1-(5-fluoro-2-pyridyl)-2-methoxy-ethoxy]imidazo[1,2-a]pyridine-3-carbonitrile, Isomer 1] | < 50
7 | CCC(Oc1cc(-c2nnn(C3CCN(C#N)CC3)c2C)cc2ncc(C#N)n12)c1ccc(F)cn1 (single isomer, unassigned; isomer 1) [Example 51, 7-[1-(1-Cyano-4-piperidyl)-5-methyl-triazol-4-yl]-5-[1-(5-fluoro-2-pyridyl)propoxy]imidazo[1,2-a]pyridine-3-carbonitrile, Isomer 1] | < 50
8 | COCC(Oc1cc(-c2nnn(C3CCN(C#N)CC3)c2C)cn2ncc(C#N)c12)c1ccc(F)cn1 (single isomer, unassigned; isomer 1) [Example 53, 6-[1-(1-Cyano-4-piperidyl)-5-methyl-triazol-4-yl]-4-[1-(5-fluoro-2-pyridyl)-2-methoxy-ethoxy]pyrazolo[1,5-a]pyridine-3-carbonitrile, Isomer 1] | < 50
9 | COCC(Oc1cc(-c2nnn(C3CCN(C#N)CC3)c2C)cn2ncc(C#N)c12)c1cncc(C(F)(F)F)c1 (single isomer, unassigned; isomer 1) [Example 61, 6-[1-(1-cyano-4-piperidyl)-5-methyl-triazol-4-yl]-4-[2-methoxy-1-[5-(trifluoromethyl)-3-pyridyl]ethoxy]pyrazolo [1,5-a]pyridine-3-carbonitrile, Isomer 1] | < 50
10 | Cc1c(-c2cc(OC(CO)c3ccc(F)cn3)n3c(C#N)cnc3c2)nnn1C1CCN(C#N)CC1 (single isomer, unassigned; isomer 1) [Example 63, 7-[1-(1-Cyano-4-piperidyl)-5-methyl-triazol-4-yl]-5-[1-(5-fluoro-2-pyridyl)-2-hydroxy-ethoxy]imidazo[1,2-a]pyridine-3-carbonitrile, Isomer 1] | < 50
11 | Cc1c(-c2cc(OC(C)c3cc(Cl)cnn3)c3c(C#N)cnn3c2)nnn1C1CCN(C#N)CC1 (single isomer, unassigned; isomer 1) [Example 68, 4-[1-(5-Chloropyridazin-3-yl)ethoxy]-6-[1-(1-cyano-4-piperidyl)-5-methyl-triazol-4-yl]pyrazolo[1,5-a]pyridine-3-carbonitrile, Isomer 1] | < 50
12 | Cc1c(-c2cc(OC(C)c3cccc4cnsc34)c3c(C#N)cnn3c2)nnn1C1CCN(C#N)CC1 (single isomer, unassigned; isomer 1) [Example 79, 4-[1-(1,2-benzothiazol-7-yl)ethoxy]-6-[1-(1-cyano-4-piperidyl)-5-methyl-triazol-4-yl]pyrazolo[1,5-a]pyridine-3-carbonitrile, Isomer 1] | < 50
13 | Cc1c(-c2cc(OC(CO)c3ccc(F)cn3)n3c(Cl)cnc3c2)nnn1C1CCN(C#N)CC1 (single isomer, unassigned; isomer 2) [Example 47, 4-[4-[3-Chloro-5-[1-(5-fluoro-2-pyridyl)-2-hydroxy-ethoxy]imidazo[1,2-a]pyidine-7-yl]-5-methyl-triazol-1-yl]piperidine-1-carbonitrile, Isomer 2] | < 50
14 | Cc1c(-c2cc(OC(C)c3ccccc3C(=O)N(C)C)c3c(C#N)cnn3c2)nnn1C1CCN(C#N)CC1 (single isomer, unassigned; isomer 2) [Example 75, 2-[1-[3-cyano-6-[1-(1-cyano-4-piperidyl)-5-methyl-triazol-4-yl]pyrazolo[1,5-a]pyridin-4-yl]oxyethyl]-N,N-dimethyl-benzamide, Isomer 2] | < 100

Further lines, results first:

Row | IC50 [nM] | SMILES
15 | < 50 | Cc1c(-c2cc(N[C@H](C)c3ccccn3)c3c(C#N)cnn3c2)cnn1C1CCN(C2CN(C#N)C2(C)C)CC1 (single isomer, unassigned) [Example 94]
16 | < 50 | Cc1c(-c2cc(OC(C)c3cncc(C(F)(F)F)n3)n3c(C#N)cnc3c2)nnn1C1CCN(C#N)CC1 (single isomer, unassigned) [Example 99, 7-[1-(1-Cyano-4-piperidyl)-5-methyl-triazol-4-yl]-5-[1-[6-(trifluoromethyl)pyrazin-2-yl]ethoxy]imidazo [1,2-a]pyridine-3-carbonitrile]
17 | < 50 | Cc1c(-c2cc(OC(CO)c3ccc(F)cn3)c3c(Cl)cnn3c2)nnn1C1CC(N2CCN(C#N)CC2)C1 (single isomer, unassigned) [Example 152, Cis-4-[3-[4-[3-Chloro-4-[1-(5-fluoro-2-pyridyl)-2-hydroxy-ethoxy]pyrazolo[1,5-a]pyridin-6-yl]-5-methyl-triazol-1-yl]cyclobutyl] piperazine-1-carbonitrile]
18 | < 50 | Cc1c(-c2cc(OCC(O)c3ccc(F)cn3)c3c(Cl)cnn3c2)nnn1C1CCN(C#N)CC1 (single isomer, unassigned) [Example 154, 4-[4-[3-Chloro-4-[2-(5-fluoro-2-pyridyl)-2-hydroxy-ethoxy]pyrazolo[1,5-a]pyridin-6-yl]-5-methyl-triazol-1-yl]piperidine-1-carbonitrile]
19 | < 50 | Cc1c(-c2cc(OCC(O)c3ccc(F)cn3)c3c(Cl)cnn3c2)nnn1C1CCN(C#N)CC1 (single isomer, unassigned) [Example 155, 4-[4-[3-Chloro-4-[2-(5-fluoro-2-pyridyl)-2-hydroxy-ethoxy]pyrazolo[1,5-a]pyridin-6-yl]-5-methyl-triazol-1-yl]piperidine-1-carbonitrile]
20 | < 50 | Cc1c(-c2cc(OCC(C)(O)c3ccc(F)cn3)c3c(Cl)cnn3c2)nnn1C1CCN(C#N)CC1 (single isomer, unassigned) [Example 156, 4-[4-[3-Chloro-4-[2-(5-fluoro-2-pyridyl)-2-hydroxy-propoxy]pyrazolo[1,5-a]pyridin-6-yl]-5-methyl-triazol-1-yl]piperidine-1-carbonitrile]
21 | < 50 | Cc1c(-c2cc(OCC(C)(O)c3ccc(F)cn3)c3c(F)cnn3c2)nnn1C1CCN(C#N)CC1 (single isomer, unassigned) [Example 157, 4-[4-[3-Fluoro-4-[2-(5-fluoro-2-pyridyl)-2-hydroxy-propoxy]pyrazolo[1,5-a]pyridin-6-yl]-5-methyl-triazol-1-yl]piperidine-1-carbonitrile]
22 | < 50 | COc1cc(-c2cnn(C3CCN(C4CN(C#N)C4(C)C)CC3)c2C)cn2ncc(C#N)c12 (single isomer, unassigned) [Example 173, 3-[4-(4-[3-Cyano-4-methoxypyrazolo[1,5-a]pyridin-6-yl]-5-methylpyrazol-1-yl)piperidin-1-yl]-2,2-dimethylazetidine-1-carbonitrile]
23 | < 50 | COc1cc(-c2cnn(C3CN(C4CCN(C#N)CC4(F)F)C3)c2C)cn2ncc(C#N)c12 (single isomer, unassigned) [Example 179, 4-[3-(4-[3-Cyano-4-methoxypyrazolo[1,5-a]pyridin-6-yl]-5-methylpyrazol-1-yl)azetidin-1-yl]-3,3-difluoropiperidine-1-carbonitrile]
24 | < 50 | Cc1c(-c2cc(OC(CO)c3ccc(F)cn3)c3c(Cl)cnn3c2)nnn1[C@H]1C[C@@H](N2CC3COCC(C2)N3C#N)C1 (single isomer, unassigned) [Example 280]
25 | < 50 | Cc1c(-c2cc(O[C@H](C)c3ccccn3)n3c(C#N)cnc3c2)nnn1C1CCN(C#N)C(C2CC2)C1 (single isomer, unassigned) [Example 281]
